Measured values as given in patent US9511058B2, “Methods for using carboxamide, sulfonamide and amine compounds” (Rigel Pharmaceuticals, Inc., priority 2010, dated 2016).

Target: AMPK
Assay: AMPK activation, enzyme-linked immunosorbent assay
Type: biochemical
Conditions: compounds of Table 1 (Table 6)

Compound | EC50 [nM]
CC(C)(C)OC(=O)N1CC[C@H](NC(=O)c2ccc(OC3CCN(c4ccc(C(F)(F)F)cc4)CC3)cn2)C1 [1-26, (S)-tert-butyl 3-(5-(1-(4-(trifluoromethyl)phenyl)piperidin-4-yloxy)picolinamido)pyrrolidine-1-carboxylate] | 100 to 500
O=C(NC1CCN(Cc2ccc(C(F)(F)F)cc2)CC1)c1cc2ccc(OC3CCN(c4ccc(C(F)(F)F)cc4)CC3)cc2o1 [1-99, N-(1-(4-(trifluoromethyl)benzyl)piperidin-4-yl)-6-(1-(4-(trifluoromethyl)phenyl)piperidin-4-yloxy)benzofuran-2-carboxamide] | < 100
O=C(NC1CCN(Cc2cn(C(c3ccccc3)(c3ccccc3)c3ccccc3)cn2)CC1)c1ccc(OC2CCN(c3ccc(C(F)(F)F)cc3)CC2)cn1 [1-47, 5-(1-(4-(trifluoromethyl)phenyl)piperidin-4-yloxy)-N-(1-((1-trityl-1H-imidazol-4-yl)methyl)piperidin-4-yl)picolinamide] | 1000 to 5000
O=C(NC1CCN(Cc2ccc3ccccc3c2)CC1)c1ccc(OC2CCN(c3ccc(C(F)(F)F)cc3)CC2)cn1 [1-37, N-(1-(naphthalen-2-ylmethyl)piperidin-4-yl)-5-(1-(4-(trifluoromethyl)phenyl)piperidin-4-yloxy)picolinamide] | 500 to 1000
CC(C)(C)OC(=O)NCCCNC(=O)c1ccc(OC2CCN(c3ccc(C(F)(F)F)cc3)CC2)cn1 [1-49, tert-butyl 3-(5-(1-(4-(trifluoromethyl)phenyl)piperidin-4-yloxy)picolinamido) propylcarbamate] | < 100
N#Cc1ccccc1CN1CCC(NC(=O)c2cc3ccc(OC4CCN(c5ccc(C(F)(F)F)cc5)CC4)cc3s2)CC1 [1-146, N-(1-(2-cyanobenzyl)piperidin-4-yl)-6-(1-(4-(trifluoromethyl)phenyl)piperidin-4-yloxy)benzo[b]thiophene-2-carboxamide] | 100 to 500
N#Cc1ccc(CN2CCC(NS(=O)(=O)c3ccc(OC4CCN(c5ccc(C(F)(F)F)cc5)CC4)nc3)CC2)cc1 [1-56, N-(1-(4-cyanobenzyl)piperidin-4-yl)-6-(1-(4-(trifluoromethyl)phenyl)piperidin-4-yloxy)pyridine-3-sulfonamide] | 5000 to 10000
Fc1ccc(CN2CCC(NC3CCc4cc(OC5CCN(c6ccc(C(F)(F)F)cc6)CC5)ccc43)CC2)cc1 (stereo not shown) [1-159, 1-(4-fluorobenzyl)-N-(5-(1-(4-(trifluoromethyl)phenyl)piperidin-4-yloxy)-2,3-dihydro-1H-inden-1-yl)piperidin-4-amine] | 100 to 500
O=C(N[C@@H]1CCN(C(=O)c2ccncc2)C1)c1cc2cc(OC3CCN(c4ccc(C(F)(F)F)cc4)CC3)ccc2o1 [1-125, (R)-N-(1-isonicotinoylpyrrolidin-3-yl)-5-(1-(4-(trifluoromethyl)phenyl)piperidin-4-yloxy)benzofuran-2-carboxamide] | 1000 to 5000
N#Cc1ccc(N2CCC(Oc3ccc4oc(C(=O)NC5CCN(Cc6ccccc6)CC5)cc4c3)CC2)cc1 [1-71, N-(1-benzylpiperidin-4-yl)-5-(1-(4-cyanophenyl)piperidin-4-yloxy)benzofuran-2-carboxamide] | < 100
O=C(NC1CCN(Cc2c[nH]cn2)CC1)c1ccc(OC2CCN(c3ccc(C(F)(F)F)cc3)CC2)cn1 [1-48, N-(1-((1H-imidazol-4-yl)methyl)piperidin-4-yl)-5-(1-(4-(trifluoromethyl)phenyl)piperidin-4-yloxy)picolinamide] | 1000 to 5000
N#Cc1ccc(CN2CC[C@@H](NC(=O)c3ccc(OC4CCN(c5ccc(C(F)(F)F)cc5)CC4)cn3)C2)cc1 [1-33, (R)-N-(1-(4-cyanobenzyl)pyrrolidin-3-yl)-5-(1-(4-(trifluoromethyl)phenyl)piperidin-4-yloxy)picolinamide] | 500 to 1000

Same assay, conditions: compounds of Table 2 (Table 7)

Compound | EC50 [nM]
O=C(NC1CCN(S(=O)(=O)c2ccc(Cl)cc2)CC1)c1ccc2[nH]c3c(c2c1)CN(Cc1ccc(C(F)(F)F)cc1)CC3 [2-32, N-(1-(4-chlorophenyl-sulfonyl)piperidin-4-yl)-2-(4-(trifluoro-methyl)benzyl)-2,3,4,5-tetrahydro-1H-pyrido [4,3-b]indole-8-carboxamide] | 1000 to 5000
O=C(NC1CCN(Cc2ccc(C(F)(F)F)cc2)CC1)c1ccc2[nH]c3c(c2c1)CN(c1ccc(F)cc1)CC3 [2-37, 2-(4-fluorophenyl)-N-(1-(4-(trifluoromethyl)benzyl)piperidin-4-yl)-2,3,4,5-tetrahydro-1H-pyrido[4,3-b]indole-8-carboxamide] | 5000 to 10000
O=C(NC1CCN(c2ccc(F)cc2)CC1)c1ccc2[nH]c3c(c2c1)CN(Cc1ccc(C(F)(F)F)cc1)CC3 [2-15, N-(1-(4-fluorophenyl)piperidin-4-yl)-2-(4-(trifluoromethyl)benzyl)-2,3,4,5-tetrahydro-1H-pyrido[4,3-b]indole-8-carboxamide] | < 500
NC(=O)c1ccc(CN2CCc3[nH]c4ccc(C(=O)NC5CCN(C(=O)c6ccncc6)CC5)cc4c3C2)cc1 [2-46, 2-(4-carbamoylbenzyl)-N-(1-isonicotinoylpiperidin-4-yl)-2,3,4,5-tetrahydro-1H-pyrido [4,3-b]indole-8-carboxamide] | > 100000
O=C(NC1CCN(S(=O)(=O)c2ccc(F)cc2)CC1)c1ccc2[nH]c3c(c2c1)CN(c1ccc(F)cc1)CC3 [2-35, 2-(4-fluorophenyl)-N-(1-(4-fluorophenylsulfonyl)piperidin-4-yl)-2,3,4,5-tetrahydro-1H-pyrido[4,3-b]indole-8-carboxamide] | 10000 to 50000

Same assay, conditions: compounds of Table 3 (Table 8)

Compound | EC50 [nM]
O=C(c1ccncc1)N1CC2CC1CN2C(=O)c1nc2ccc(OC3CCN(c4ccc(C(F)(F)F)cc4)CC3)cc2o1 (stereo not shown) [3-11, (5-isonicotinoyl-2,5-diazabicyclo[2.2.1]heptan-2-yl)(6-(1-(4-(trifluoromethyl)phenyl)piperidin-4-yloxy)benzo[d]oxazol-2-yl)methanone] | 100 to 1000
O=C(NC1CCN(Cc2ccncc2)CC1)c1nc2ccc(OC3CCN(c4ccc(C(F)(F)F)cc4)CC3)cc2o1 [3-3, N-(1-(pyridin-4-ylmethyl)piperidin-4-yl)-6-(1-(4-(trifluoromethyl)phenyl)piperidin-4-yloxy)benzo[d]oxazole-2-carboxamide] | < 100
O=C(NC1CCN(Cc2ccncc2)CC1)c1cn2ccc(OC3CCN(c4ccc(C(F)(F)F)cc4)CC3)cc2n1 [3-17, N-(1-(pyridin-4-ylmethyl)piperidin-4-yl)-7-(1-(4-(trifluoromethyl)phenyl)piperidin-4-yloxy)imidazo[1,2-a]pyridine-2-carboxamide] | < 100

Same assay, conditions: compounds of Table 5 (Table 10)

Compound | EC50 [nM]
N#Cc1ccc(CN2CCC(Oc3ccc(C(=O)NC4CCN(Cc5ccc(Cl)cc5)CC4)cc3F)CC2)cc1 [5-70, N-(1-(4-chlorobenzyl)piperidin-4-yl)-4-(1-(4-cyanobenzyl)piperidin-4-yloxy)-3-fluorobenzamide] | < 1000
N#Cc1ccc(CN2CCC(NC(=O)c3ccc(OC4CCN(c5ccc(C(F)(F)F)cc5)CC4)c(F)c3)CC2)cc1 [5-43, N-(1-(4-cyanobenzyl)piperidin-4-yl)-3-fluoro-4-(1-(4-(trifluoromethyl)phenyl)piperidin-4-yloxy)benzamide] | < 1000
O=C(c1ccc(OC2CCN(Cc3ccccc3)CC2)cc1)N1CCN(c2ccccc2)CC1 [5-103, (4-(1-benzylpiperidin-4-yloxy)phenyl)(4-phenylpiperazin-1-yl)methanone] | 20000 to 50000
O=C(NC1CCN(Cc2ccccc2)CC1)c1cccc(OC2CCN(Cc3ccccc3)CC2)c1 [5-13, N-(1-benzylpiperidin-4-yl)-3-(1-benzylpiperidin-4-yloxy)benzamide] | 20000 to 50000
O=C(NC1CCN(C(=O)c2ccncc2)CC1)c1ccc(OC2CCN(c3ccc(C(F)(F)F)cc3)CC2)c(F)c1 [5-40, 3-fluoro-N-(1-isonicotinoylpiperidin-4-yl)-4-(1-(4-(trifluoromethyl)phenyl)piperidin-4-yloxy)benzamide] | < 1000
O=C(NC1CCN(Cc2ccccc2)CC1)c1ccc(OC2CCN(Cc3ccco3)CC2)cc1 [5-3, N-(1-benzylpiperidin-4-yl)-4-(1-(furan-2-ylmethyl)piperidin-4-yloxy)benzamide] | 1000 to 10000
N#Cc1ccc(CN2CCC(Oc3ccc(C(=O)NC4CCN(Cc5ccccc5)CC4)cc3Cl)CC2)cc1 [5-67, N-(1-benzylpiperidin-4-yl)-3-chloro-4-(1-(4-cyanobenzyl)piperidin-4-yloxy)benzamide] | < 1000
O=C(NC1CCN(Cc2ccccc2)CC1)c1ccc(OC2CCN(Cc3ccc(C(F)(F)F)cc3)CC2)c(Cl)c1 [5-56, N-(1-benzylpiperidin-4-yl)-3-chloro-4-(1-(4-(trifluoromethyl)benzyl)piperidin-4-yloxy)benzamide] | < 1000
O=C(NC1CCN(Cc2ccccc2)CC1)c1ccc(OC2CCN(C(=O)c3ccc(F)cc3)CC2)c(Cl)c1 [5-22, N-(1-benzylpiperidin-4-yl)-3-chloro-4-(1-(4-fluorobenzoyl)piperidin-4-yloxy)benzamide] | 1000 to 10000
COc1ccc(CN2CCC(Oc3ccc(C(=O)NCCCN4CCOCC4)cc3Cl)CC2)cc1 [5-101, 3-chloro-4-(1-(4-methoxybenzyl)piperidin-4-yloxy)-N-(3-morpholinopropyl)benzamide] | 10000 to 20000
CC(C)(C)c1ccc(CN2CCC(Oc3ccc(C(=O)NC4CCN(Cc5ccccc5)CC4)cc3F)CC2)cc1 [5-20, N-(1-benzylpiperidin-4-yl)-3-fluoro-4-(1-(4-tert-butylbenzyl)piperidin-4-yloxy)benzamide] | < 1000
O=C(NC1CCN(Cc2ccccc2)CC1)c1ccc(OC2CCN(Cc3ccc(Cl)c(Cl)c3)CC2)c(Cl)c1 [5-84, N-(1-benzylpiperidin-4-yl)-3-chloro-4-(1-(3,4-dichlorobenzyl)piperidin-4-yloxy)benzamide] | < 1000
CC(C)(C)OC(=O)NCCCNC(=O)c1ccc(OC2CCN(Cc3ccc(C(F)(F)F)cc3)CC2)cc1 [5-95, tert-butyl 3-(4-(1-(4-(trifluoromethyl)benzyl)piperidin-4-yloxy)benzamido)propylcarbamate] | < 1000
N#Cc1ccc(N2CCC(Oc3ccc(C(=O)NC4CCN(Cc5ccccc5)CC4)c(Cl)c3)CC2)cc1 [5-49, N-(1-benzylpiperidin-4-yl)-2-chloro-4-(1-(4-cyanophenyl)piperidin-4-yloxy)benzamide] | < 1000
